Source: ChEMBL document CHEMBL3351288, “Flavonoids and arylbenzofurans from the rhizomes and roots of Sophora tonkinensis with IL-6 production inhibitory activity” (Bioorg Med Chem Lett, 2014)

What was measured:
[1] = Cytotoxicity against human HMC1 cells assessed as cell viability; assay type: cell-based
HMC1 = experiment: Inhibition of A23187-induced IL-6 production in human HMC1 cells incubated for 30 mins prior to A23187 challenge measured after 24 hrs by ELISA; assay type: functional, cell-based

Structure (SMILES)	IC50 [1] [µM]	IC50 (HMC1) [µM]
CC(C)=CCc1cc(C2CC(=O)c3ccc(O)c(CC=C(C)C)c3O2)c(O)cc1O (stereo not drawn)	> 20	1.62
COc1ccc(-c2cc3ccc(O)cc3o2)c(O)c1	> 20	4.02
CC(C)=CCc1cc([C@@H]2CC(=O)c3ccc(O)c(CC=C(C)C)c3O2)ccc1O [GLABROL]	> 20	0.73
Oc1ccc2c(c1)OC[C@H]1c3cc4c(cc3O[C@@H]21)OCO4 [MAACKIAIN]	> 20	3.01
